Laboratory results reported in patent US8354412B2, “Beta-3 receptor ligands and their use in therapy” (Universita' Degli Studi di Bari, priority 2006, dated 2013).
Like-named read-outs stand apart in the source and are kept apart here.

Assays:
[1] = target: T1, cloned human β1-adrenergic receptor (Homo sapiens, UniProt P08588); assay: [3H]-dihydroalprenolol binding on CHO cell membranes, β1-adrenergic receptor
T1 construct: expressed in transfected cells; host or cells: CHO (membranes)
Protocol: (§1) The cell lines of “Chinese hamster ovary” (CHO) that individually express the three subtypes of the human adrenergic receptor (β1, β2 or β3 were grown at 37° C. in an atmosphere composed of 5% of CO2 and 95% of air in a culture medium of Dulbecco's Modified Eagle Medium with a nutrient mixture of F12 (DMEM/F12) supplemented with 10% of bovine fetal Serum, 2 mM of L-glutamine, 100 units/ml of penicillin G and 100 μg/ml of […].
(§2) The preconfluence cells were washed with cold PBS, removed from the surface of the plate, collected in cold lysis buffer (10×10^6/ml; 5 mM Tris/HCl, 2 mM EDTA, pH 7.4 at 4° C.) and homogenized with a Brinkmann Polytron (5 for 3×10 secs). The cell membranes obtained were then […] for 10 mins at 4° C. at 1000 g. The supernatant was centrifuged at 10000 g for 30 min. at 4° C. The resultant membrane pellet was resuspended in cold incubation buffer (50 mM Tris/HCl, 10 mM MgCl2, pH 7.4 for the binding experiments on the β1-adrenergic receptors; 50 mM Tris/HCl, pH 7.4 for the binding experiments of on the β2-adrenergic receptors) and its protein content was then determined. The membrane suspension obtained was used immediately or stored at −80° C. until used in the binding experiments.
(§3) The saturation experiments were conducted by incubating the cell membranes (50 μg of protein) in 500 μl of incubation buffer, containing increasing concentrations of [^3H]-dihydroalprenolol (0.1 nM, 0.5 nM, 1 nM, 3 nM, 5 nM, 10 nM). The β1-adrenergic receptors were incubated at 30° C. for 30 min. while the incubation lasted 90 min. in the case of the β2-adrenergic receptor. […] The filters were then washed (3×1 ml) with cold incubation buffer. The residual radioactivity of the filters was measured using a Beckmann LS6500 Multi-purpose scintillator.
(§4) The competitive experiments were conducted by incubation of 50 μg of protein with increasing quantities of the compound under examination (from 10^−9M to 10^−4M) and 4 nM [^3H]-dihydroalprenolol for the β1-adrenergic receptor or 0.4 nM for the β2-adrenergic receptor, in a total volume of 500 μl of incubation buffer.

[2] = target: T2, cloned human beta-3 adrenergic receptor (Homo sapiens, UniProt P13945); assay: cAMP accumulation (DELFIA cAMP-Eu assay) in CHO-K1 cells expressing the beta-3 adrenergic receptor; assay type: cell-based; conditions: for EC50: concentration of ligand producing 50% of maximum cAMP accumulation, CHO-K1 human β3, SEM, n ≧ 3; for Emax: CHO-K1, read-out: Intrinsic Activity (IA %); for type of activity on the beta-3 adrenergic receptor (in words): statement in the description
T2 construct: expressed in transfected cells; host or cells: CHO-K1
T2 sequence (P13945 whole entry): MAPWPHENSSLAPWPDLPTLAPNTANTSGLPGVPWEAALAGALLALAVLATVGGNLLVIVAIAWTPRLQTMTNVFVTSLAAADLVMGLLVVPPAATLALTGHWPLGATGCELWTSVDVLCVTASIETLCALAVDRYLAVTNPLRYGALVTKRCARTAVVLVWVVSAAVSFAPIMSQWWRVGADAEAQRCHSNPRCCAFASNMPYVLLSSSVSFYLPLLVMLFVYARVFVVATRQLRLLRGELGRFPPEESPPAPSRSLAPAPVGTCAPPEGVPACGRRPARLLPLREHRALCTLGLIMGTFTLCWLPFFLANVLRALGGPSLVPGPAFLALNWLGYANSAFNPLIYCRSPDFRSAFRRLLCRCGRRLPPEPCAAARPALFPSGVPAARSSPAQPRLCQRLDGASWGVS
Protocol: The determination of the beta-3 adrenergic activity of the compounds of general formula (I) was performed by measuring the levels of cAMP in cell lines of CHO-K1 that express the cloned human beta-3 adrenergic receptor. The accumulation of cAMP is directly correlated to the beta-3 adrenergic activity of the compound and is a predictive measure of the effectiveness of the ligand. The accumulation of cAMP produced by the compounds 1a-1h was determined using the Dissociation Enhanced Lanthanide Fluorescence Immunoassay (DELFIA®, Gabriel, D.; Vernier, M.; Pfeifer, M. J.; Dasen, B.; Tenaillon, L.; Bouhelal, R. Assay and Drug Development Technologies 2003, 1, 291-303), endowed with greater sensitivity and greater accuracy than [α-^32P] radioisotope methods (Hoffmann, C.; Leitz, M. R.; Obendorf-Maass, S.; Lohse, M. J.; Klotz, K.-N. Naunyn-Schmiedeberg's Arch. Pharmacol. 2004, 369, 151-159) or [^3H] (Nannies, K. M.; Briend-Sutren, M. M.; Emorine, L. J.; Delavier-Klutchko, C.; Marullo, S.; Strosberg, A. D. Eur. J. Biochem. 1991, 196, 357-361) of determining the levels of cAMP in cell lines.
as §1
The DELFIA test (Dissociation Enhanced Lanthanide […] Immuno Assay) used for measuring the levels of cAMP was performed according to the protocol supplied by PerkinElmer Life Science. The optimization of the experimental conditions (quantity of cells, times of incubation) is reported below.
A plate of confluence cells was trypsinized and the cells were resuspended in the aforementioned culture medium, sown at a concentration of 50000 cells/200 μl per well in a 96-well plate and cultivated overnight in a CO2 incubator. The culture medium was then aspirated from every well and substituted with 100 μl of culture substrate without serum, preheated at 37° C. The plate was then put back into a CO2 incubator for 30 mins at 37° C. 50 μl of IBMX (3-isobutyl-1-methylxanthine) 1 mM, an inhibitor of the phosphodiesterase was then added to all the wells. In some wells 50 μl of forskolin (compound used for the validation of the DELFIA) was added at different concentrations (100 nM, 500 nM, 1 μM, 10 μM, 50 μM) and in the other wells 50 μl of the compounds to be tested at the same concentrations as the forskolin; the plate was then again incubated for 30 min at 37° C. The cells, at this point, were lysed and incubated at room temperature for 5 min. The plate was used immediately for measuring the levels of cAMP or stored at 4° C. until the measurement was carried out. The fluorescence was determined using a multilabel time-resolved fluorimetry technique performed on a PerkinElmer 1420 Victor®. The excitation and emission wavelengths were 340 nm and 615 nm respectively.

[3] = target: T3, cloned human β2-adrenergic receptor (Homo sapiens, UniProt P07550); assay: [3H]-dihydroalprenolol binding on CHO cell membranes, β2-adrenergic receptor; conditions: compound at 10 μM
T3 construct: expressed in transfected cells; host or cells: CHO (membranes)
T3 sequence (P07550 whole entry): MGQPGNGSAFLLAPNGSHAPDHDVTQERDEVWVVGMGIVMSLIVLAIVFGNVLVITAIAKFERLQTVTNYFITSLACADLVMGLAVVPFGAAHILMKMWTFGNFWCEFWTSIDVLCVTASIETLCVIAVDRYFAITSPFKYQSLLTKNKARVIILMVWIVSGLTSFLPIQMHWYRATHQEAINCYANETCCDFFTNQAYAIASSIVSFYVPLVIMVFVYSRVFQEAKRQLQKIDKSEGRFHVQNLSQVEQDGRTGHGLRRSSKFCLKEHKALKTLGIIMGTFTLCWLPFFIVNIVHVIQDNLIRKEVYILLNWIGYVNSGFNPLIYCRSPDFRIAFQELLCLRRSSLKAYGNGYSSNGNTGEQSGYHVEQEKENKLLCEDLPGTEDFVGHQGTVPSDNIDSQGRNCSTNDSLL

[4] = target: T3, cloned human β2-adrenergic receptor; assay: as above
Protocol: as §1, §2, §3, §4

[5] = target: T1, cloned human β1-adrenergic receptor; assay: [3H]-dihydroalprenolol binding on CHO cell membranes, β1-adrenergic receptor; conditions: compound at 10 μM
[6] = human β1, Cheng-Prusoff, 4 nM [3H]-dihydroalprenolol, read-out: Binding Ki, β1
[7] = maximum cAMP response, isoproterenol 10^−4 M = 100%, absence of agonists = 0%
[8] = human β2, Cheng-Prusoff, 0.4 nM [3H]-dihydroalprenolol, read-out: Binding Ki, β2

T1 sequence (P08588 whole entry): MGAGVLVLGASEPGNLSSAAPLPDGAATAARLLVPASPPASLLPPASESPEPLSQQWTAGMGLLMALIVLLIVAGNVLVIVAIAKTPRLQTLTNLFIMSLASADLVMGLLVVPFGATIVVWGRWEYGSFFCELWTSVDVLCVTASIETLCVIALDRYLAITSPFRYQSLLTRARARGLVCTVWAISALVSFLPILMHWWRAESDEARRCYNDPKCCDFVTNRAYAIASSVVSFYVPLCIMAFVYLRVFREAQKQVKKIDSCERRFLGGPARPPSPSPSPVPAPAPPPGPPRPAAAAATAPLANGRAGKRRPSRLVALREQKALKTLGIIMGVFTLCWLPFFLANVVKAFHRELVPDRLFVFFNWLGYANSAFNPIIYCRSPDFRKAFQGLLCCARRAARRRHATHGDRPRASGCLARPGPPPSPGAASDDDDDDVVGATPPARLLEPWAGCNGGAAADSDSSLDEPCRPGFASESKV

Row | Compound | Ki [1, 6] [nM] | EC50 [2] [nM] | Ki [4, 8] [nM] | Emax [2, 7] [%] | type of activity on the beta-3 adrenergic receptor (in words) [2] | Intrinsic Activity (IA %) [2, 7] | % activation at 10 μM, β2 [3] [%] | % activation at 10 μM, β1 [5] [%] | Ki [1] [nM] | Ki [4] [nM]
1 | C[C@@H](Oc1ccc(CCN[C@H](C)[C@@H](O)c2ccccc2)cc1)C(=O)O [Compound 1j] | > 7000 | 211 ± 10 | > 5000 |  |  | (39) % | 21 | 20 |  | 
2 | CC(C)(Oc1ccc(CCNC[C@H](O)c2ccccc2)cc1)C(=O)O [Compound 1b, (2R)-(−)-2-{4-[2-(2-phenyl-2-hydroxyethylamino)ethyl]phenoxy}-2-methylpropionic acid] | > 7000 | 3.9 ± 2.1 | > 5000 | 72 |  |  |  |  |  | 
3 | C[C@@H](Oc1ccc(CCNC[C@H](O)c2ccccc2)cc1)C(=O)O [Compound 1h, (2R)-(−)-2-{4-[2-((2R)-2-phenyl-2-hydroxyethylamino)ethyl]phenoxy}propionic acid] | > 7000 | 107 ± 37 | > 5000 | 35 |  |  |  |  |  | 
4 | CC(C)(Oc1ccc(CCNC[C@@H](O)c2ccccc2)cc1)C(=O)O [Compound 1c, (2S)-(+)-2-{4-[2-(2-phenyl-2-hydroxyethylamino)ethyl]phenoxy}-2-methylpropionic acid] | > 7000 | 3.4 ± 0.8 | > 5000 | 76 |  |  |  |  |  | 
5 | C[C@H](NCCc1ccc(O[C@H](C)C(=O)O)cc1)[C@@H](O)c1ccccc1 [Compound 1k, (R)-2-[4-[2-((1S,2S)-1-hydroxy-1-phenylpropan-2-yl-amino)ethyl]phenoxy]propionic acid] |  | 1.97 ± 0.9 |  | 53 |  |  |  |  | > 7000 | > 5000
6 | CC(C)(Oc1ccc(CCNCC(O)c2ccccc2)cc1)C(=O)O (racemic) [Compound 1a, (±)-2-{4-[2-(2-phenyl-2-hydroxyethylamino)ethyl]phenoxy}-2-methylpropionic acid] | > 7000 | 4.9 ± 0.25 | > 5000 | 68 | behaves as an agonist of the beta-3 adrenergic receptor independently of the configuration of the chiral atom |  |  |  |  | 
7 | C[C@H](Oc1ccc(CCNC[C@H](O)c2ccccc2)cc1)C(=O)O [Compound 1f, (2S)-(−)-2-{4-[2-((2R)-2-phenyl-2-hydroxyethylamino)ethyl]phenoxy}propionic acid] | > 7000 | 2.2 ± 0.7 | > 5000 | 50 | particularly active compound as agonist |  |  |  |  | 
8 | C[C@@H](Oc1ccc(CCNC[C@@H](O)c2ccccc2)cc1)C(=O)O [Compound 1g, (2R)-(+)-2-{4-[2-((2S)-2-phenyl-2-hydroxyethylamino)ethyl]phenoxy}propionic acid] | > 7000 | 176 ± 20 | > 5000 | -73 | inverse agonist activity |  |  |  |  | 
9 | CC(Oc1ccc(CCNCC(O)c2ccccc2)cc1)C(=O)O (racemic) [Compound 1d, (±)-2-{4-[2-(2-phenyl-2-hydroxyethylamino)ethyl]phenoxy}propionic acid] | > 7000 | 3.8 ± 0.7 | > 5000 | 65 |  |  |  |  |  | 
10 | C[C@H](Oc1ccc(CCNC[C@@H](O)c2ccccc2)cc1)C(=O)O [Compound 1e, (2S)-(+)-2-{4-[2-((2S)-2-phenyl-2-hydroxyethylamino)ethyl]phenoxy}propionic acid] | > 7000 | 192 ± 19 | > 5000 | -64 | inverse agonist activity |  |  |  |  | 

Further lines, with some results ahead:

Row | Ki [1, 6] [nM] | EC50 [2] [nM] | Ki [4, 8] [nM] | Emax [2, 7] [%] | type of activity on the beta-3 adrenergic receptor (in words) [2] | Compound | Intrinsic Activity (IA %) [2, 7] | % activation at 10 μM, β2 [3] [%] | % activation at 10 μM, β1 [5] [%] | Ki [1] [nM] | Ki [4] [nM]
11 | > 7000 | 5 ± 1.9 | > 5000 | 58 |  | COc1ccc(S(=O)(=O)N2CCN(C[C@H](O)COc3ccccc3)CC2)cc1 [Compound 2a, (S)-2-hydroxy-3-[4-(4-methoxyphenylsulfonyl)piperazin-1-yl]-1-phenoxy propane] |  |  |  |  | 
12 | > 7000 | 8.3 ± 1.94 | > 5000 | 48 |  | COc1ccc(S(=O)(=O)N2CCN(C[C@H](O)COc3ccc(OCc4ccccc4)cc3)CC2)cc1 [Compound 2c, (S)-1-(4-benzyloxyphenoxy)-2-hydroxy-3-[4-(4-methoxybenzenesulfonyl)piperazin-1-yl]propane] |  |  |  |  | 
13 | > 7000 | 5.24 ± 1.08 | > 2000 | 43 |  | COc1ccc(S(=O)(=O)N2CCN(C[C@H](O)COc3cccc4ccccc34)CC2)cc1 [Compound 2i, (S)-2-hydroxy-1-(napht-1-yloxy)-3-[4-(4-methoxyphenylsulfonyl)piperazin-1-yl)propane] |  |  |  |  | 
14 | > 7000 |  | > 5000 |  |  | COc1ccc(S(=O)(=O)N2CCN(C[C@H](O)COc3cccc(N)c3)CC2)cc1 [Compound 2e, (S)-1-(3-aminophenoxy)-2-hydroxy-3-[4-(4-methoxyphenylsulfonyl)piperazin-1-yl]propane] |  |  |  |  | 
15 | > 7000 | 1.97 ± 0.92 | > 5000 | 67 |  | COc1ccc(S(=O)(=O)N2CCN(C[C@H](O)COc3ccc(O)cc3)CC2)cc1 [Compound 2b, (S)-2-hydroxy-1-(4-hydroxyphenoxy)-3-[4-(4-methoxyphenylsulfonyl)piperazin-1-yl]propane] |  |  |  |  | 
16 | > 7000 | 3.8 ± 1.8 | 177 | 38 |  | COc1ccc(S(=O)(=O)N2CCN(C[C@H](O)COc3cccc4[nH]c5ccccc5c34)CC2)cc1 [Compound 2j, (S)-1-(Carbazol-4-yloxy)-2-hydroxy-3-[4-(4-methoxybenzenesulfonyl)piperazin-1-yl)propane] |  |  |  |  | 
17 | > 7000 | 4.1 ± 1.93 | > 5000 | 84 |  | COc1ccc(S(=O)(=O)N2CCN(C[C@H](O)COc3cccc([N+](=O)[O-])c3)CC2)cc1 [Compound 2d, (S)-2-hydroxy-3-[4-(4-methoxyphenylsulfonyl)piperazin-1-yl]-1-(3-nitrophenoxy)-propane] |  |  |  |  | 
